| SMILES | melting point [°C] |
| --- | --- |
| Cc1ccc2c(c1)NCc1ccccc1O2 | 84 to 86 |
| COc1cc(-n2c(-c3cc(-c4cnc5[nH]ccc5c4)ccn3)cn(C)c2=O)ccc1Cl | 223 |
| CN1C(=O)[C@H](NC(=O)CCc2ccccc2C(F)(F)F)N=C(c2ccccc2)c2ccccc21 | 110 to 113 |
| CCOC(=O)c1cn(C2CC2)c2c(F)c(C#Cc3cc(Cc4cnc(N)nc4N)cc(OC)c3OC)c(F)cc2c1=O | > 230 |
| CN1C[C@H](CN2CCN(C(c3ccccc3)c3ccccc3)CC2)C=C2c3cccc4[nH]cc(c34)C[C@H]21 | > 200 |
| COc1cccc(CC(=O)O)c1OCc1cc(OC(C)C)nn1Cc1ccc2ccccc2n1 | 129 to 130 |
| CC(C)[C@H](NC(=O)OCc1ccccc1)C(=O)c1ccc(OCc2ccccc2)cc1 | 75 to 77 |
| CCc1cccc2[nH]c(=O)oc(=O)c12 | 202 to 204 |
| Cc1oc(-c2ccccc2)nc1COc1ccc(CC(=O)O)cc1 | 181 to 183 |
| COC(=O)COc1cc(C)c(SCc2sc(-c3ccc(C(F)(F)F)cc3)nc2C)c(C)c1 | 113 |
| Clc1ccccc1-c1nc(-c2ccccn2)no1 | 93 to 94 |
| NC(=O)C(Nc1ccc(I)cc1)c1ccccc1 (stereo unspecified) | 134 to 137 |
| Clc1ccc(Nc2nnc(-c3cccc(Oc4ccc(Cl)c(Cl)c4)c3)s2)cc1Cl | 189 to 190 |
| CCCCCNC(=O)N(C)c1cccc(-c2ccc(C=C(C)C(=O)O)cc2OCCCC)c1 | 87 to 89 |
| Cc1nc2cnc3cccnc3c2n1CC(C)C | 110 to 111 |
| COCCOc1ccc(O)cc1 | 97.9 |
| CCCn1nc2c(N)nc3ccccc3c2c1CC(C)(C)C#N | 248 to 250 |
| Cc1[nH]cc2c(=O)n(-c3ccc(Cl)cc3)nc-2c1-c1cccc(-c2cccnc2)c1 | 312 to 318 |
| CCc1nc(/C=C\c2cn(-c3ccccc3)nc2OCc2ccc(OCc3nc(-c4ccco4)oc3C)c(OC)c2)cs1 | 108 to 109 |
| CCOC(=O)c1cn(N)c2cc(-n3cccc3)c(F)cc2c1=O | 276 to 279 |
| COc1ccc(C(NC(=O)c2ccc(F)cc2)c2cccc(Nc3c(OC)c(=O)c3=O)c2)cc1 (stereo unspecified) | 115 to 116 |
| CC[C@H](C)[C@H](OCc1cccc(F)c1F)[C@H]1[C@H]([N+](=O)[O-])[C@H](c2ccccc2)N[C@@H]1C(=O)NCC(=O)O | 137 to 138 |
| COc1ccc(-c2c(-c3cc(OC)c(OC)c(OC)c3)ncn2-c2cc(OC)c(OC)c(OC)c2)cc1O | 154 to 156 |
| COCCOc1ccc2c(C3C(=O)Nc4ccccc43)ncnc2c1 (stereo unspecified) | 245 to 248 |
| COc1nc(C)cnc1NS(=O)(=O)c1cccnc1-c1ccc(CCC(=O)O)cc1 | 166 to 168 |
| C#CCN1C(=O)CC(c2ccccc2)N=C1c1ccccc1 (stereo unspecified) | 74.5 to 77 |
| CC(CC(=O)O)C(=O)c1ccc(-n2ccnc2)cc1 (stereo unspecified) | 181 to 182 |
| O=C(O)Cc1cccc2c(-c3ccc(Br)cc3)onc12 | 190 to 192 |

| SMILES | melting point [°C] |
| --- | --- |
| CCOC(=O)NC(=O)C1c2ccccc2Oc2c1cccc2C(F)(F)F (stereo unspecified) | 196 to 198 |
| N#Cc1c[nH]c(C(N)=O)c1 | 253 to 256 |
| O=c1nc(-c2ccc(Sc3ccc(Cl)cc3)nc2)sc2ccccc12 | 222 |
| COC(=O)Cc1c(C(=O)OC)oc2ccccc2c1=O | 105 |
| Cc1cc(-c2ccccc2)n2nc(S(C)(=O)=O)nc2n1 | 158 to 159 |
| CC(CC(=O)c1cccc(C(F)(F)F)c1)C(=O)O (stereo unspecified) | 90 to 91 |
| CNC(=O)c1ccccc1Nc1nc(Nc2ccc3c(c2)CCC(NCC(F)F)CC3)ncc1Cl (stereo unspecified) | 182 to 183 |
| Cc1oc(-c2cccc(Br)c2)nc1CCOc1ccc(OC(C)(C)C(=O)O)cc1 | 158 to 159 |
| C#CCOc1cc(F)ccc1[N+](=O)[O-] | 38 to 39 |
| FC(F)C(Cl)=NC(c1ccccc1)(c1ccccc1)c1ccccc1 | 154 to 156 |
| COCc1cc(-c2ncc3[nH]c4cccc(OCc5ccccc5)c4c3c2COC)no1 | 133 to 135 |
| Cc1cccc(-c2nnc(-c3ccccc3Cc3ccccc3)nn2)c1 | 90 to 91 |
| Cc1cc(O)nc(SCC(CS(=O)(=O)c2ccc(-c3ccc(Cl)cc3)cc2)C(=O)O)n1 (stereo unspecified) | 165 to 168 |
| O=[N+]([O-])c1cccc(-c2ncc[nH]2)c1 | 193 to 194 |
| CCCCc1c(-c2ccncc2)[nH]c(-c2ccncc2)c1C(=O)OCC | 256 to 258 |
| CCOC(=O)c1ccoc1COc1cc(-c2nn(C)c(OC(F)F)c2Cl)c(F)cc1Cl | 59 to 61 |
| CNC(=O)ON=C1SC(C)(C)N=C1C | 90 to 92 |
| Cc1cc(Cl)ccc1N=CN(C)SN(C)c1ccccc1 | 65 to 67 |
| CCCc1nn(C)c2c(=O)[nH]c(Cc3ccc(-n4cnnc4)cc3)nc12 | 297 to 300 |
| Cc1cccc(C)c1NC(=O)c1ccc(N)cc1 | 212 to 215 |
| Cc1ccnc(NC(=O)C2=C(O)c3ccc4ccccc4c3S(=O)(=O)N2C)c1 | 221 |
| c1ccc(N(c2ccccc2)c2cccc3cc(-c4nc5ccccc5s4)ccc23)cc1 | 186 to 187 |
| N#CC(C=N)CC(=O)c1ccccc1 (stereo unspecified) | 89 to 90 |
| C=C1C(=O)NC(=O)N1c1ccc(Cl)cc1 | 185 to 187 |
| N#Cc1ccc(NC(=N)Nc2ncccc2OCc2ccccc2)cc1 | 173 to 175 |
| O=C(O)c1cnn2c(C(F)F)cc(-c3ccc(C(F)(F)F)c(OCC(F)(F)F)c3)nc12 | 261 |
| COC1(OC)C2(Cl)C(Cl)=C(Cl)C1(Cl)C1OC(=O)OC12 (stereo unspecified) | 160 to 162 |

Continued, values first:

| melting point [°C] | SMILES |
| --- | --- |
| 233 to 235 | Cc1cc(C=CC#N)cc(C(=O)c2[nH]c(=O)[nH]c(=O)c2C(C)C)c1 |
| 184 to 189 | O=C(O)C1=Cc2cc(OCc3ccccc3)ccc2OC1 |
| 202 to 204 | COc1ccccc1NC(=O)N1CCc2cc(S(=O)(=O)N3CC(c4ccccc4)NC3=O)ccc21 (stereo unspecified) |
| 290 to 291 | Cc1cc(C(=O)O)c2c(c1)C(C(Cl)(Cl)Cl)OC(C(Cl)(Cl)Cl)O2 (stereo unspecified) |
| 108 to 109 | COC(=O)C1CCCc2c(-c3ccc(Cl)cc3)nsc2C1 (stereo unspecified) |
| 179 to 181 | COc1cc(Nc2c(C#N)cnc3cc(-c4coc(CN5CCN(C)CC5)c4)c(OC)cc23)c(Cl)cc1Cl |
| 148 to 150 | O=C1N(C2CCCCC2)CC(CO)C1(c1ccccc1)c1ccccc1 (stereo unspecified) |
| 65 to 68 | Cc1nnc(SCCCC(=O)NC/C=C\COc2cc(CN3CCCCC3)ccn2)s1 |
| 127 to 128 | Oc1nc(-c2ccccc2)sc1CCc1ccccc1 |
| 83 to 84 | C=C(C)CN1Cc2cscc2Nc2ccccc21 |
| 202 to 204 | CCCC[C@]1(CC)CS(=O)(=O)c2cc(OC)c(Br)cc2[C@@H](c2ccccc2)N1O |
| 94 to 95 | COc1ccc2c(c1OCc1ccccc1)CCN(C(C)=O)C2 |
| 124 to 125 | CNC(=O)Cc1ccc(O)cc1 |
| 158 to 159 | CN1CCC(c2cccc(F)c2)(C(C)(C)O)CC1 |
| 62 to 68 | O=c1c2c(N3CCNCC3)cc(Cl)cc2n(Cc2ccccc2)c(=O)n1CCCc1ccccc1 |
| 165 to 166 | OC1c2ccc(F)cc2SC1Cn1ccnc1 (stereo unspecified) |
| 164 | Nc1ccc2ccc(OCCN3CCOCC3)nc2n1 |
| 88 to 90 | COc1cc(COCCc2cccc(NS(=O)(=O)C(F)(F)F)c2)ccc1-c1ccc(Cl)cc1 |
| 119 to 122 | OCc1ccc(Nc2ccccc2)nc1 |
| 87 to 89 | O=C(O)Cc1ccc(Oc2ccc(F)cc2)cc1 |
| 146 to 147 | COC(=O)C1CC(C#N)(c2ccc(OC)c3c2OC(C)(C)O3)CCC1=O (stereo unspecified) |
| 191 to 192 | COC(=O)NNc1cc(C)c(-c2ccc(C#N)cc2)nn1 |
| 280 to 282 | Cc1ccc(Sc2ccnc3sc(C(N)=O)cc23)cc1 |

| melting point [°C] | SMILES |
| --- | --- |
| 169 to 170 | Oc1cc2c(cc1C13CC4CC(CC(C4)C1)C3)CCCC2 |
| 268 to 269 | O=c1[nH]sc2nc(N3CCCCC3)ncc12 |
| 194 to 195 | N#Cc1cc(N2CCN(CC[C@H]3CC[C@H](NS(=O)(=O)c4cccnc4)CC3)CC2)cc(C(F)(F)F)c1 |
| 164 to 171 | CC1(c2c[nH]cn2)CCc2ccccc21 (stereo unspecified) |
| 222 | O=C(c1ccc(Cl)cc1)c1sc2cc(O)ccc2c1-c1ccccc1 |
| 149 to 150 | Cn1c(=O)ccc2cc(COc3cccc(C4(C#N)CCOCC4)c3)ccc21 |
| 150 | COc1ccc2c(c1)C(C(=O)O)=Cc1ccccc1O2 |
| 250 to 252 | CCOc1ccc2[nH]c3c(c2c1)C[C@@]1(C)C(=O)N(CCBr)C(=O)N1[C@@H]3c1cccc(O)c1 (racemic) |
| 242 to 243 | COc1cc(-c2nnn[nH]2)ccc1Cc1cn(C)c2ccc(NC(=O)CC3CCCC3)cc12 |
| 223 to 225 | N#Cc1ccc2c(O)c(C(=O)NCCCCN3CCN(C(c4ccccc4)c4ccccc4)CC3)cnc2c1 |
| 199 to 205 | NC(=O)NC1CCC(OC(=O)c2ccccc2)c2sccc21 (stereo unspecified) |
| 116 to 118 | O=C(NN1CCCN(C(=O)OCc2ccccc2)CC1)c1ccc(F)cc1 |
| 175 | CN1CCCC1=NC(=O)Nc1ccc(Cl)c(C(F)(F)F)c1 |
| 260 to 262 | COc1c(N2CCC(N)C(C)C2)c(F)c(N)c2c(=O)c(C(=O)O)cn(C3CC3)c12 (stereo unspecified) |
| 40 | Cc1csc2c1CCN(C)CC2c1ccccc1 (stereo unspecified) |
| 103 to 104 | CN(N=C(Cl)c1c(Cl)cccc1Cl)S(=O)(=O)c1ccccc1 |
| 182 to 183 | CCC1Oc2cccc3nc4c(c(c23)NC1=O)CCCC4 (stereo unspecified) |
| 59 to 61 | O=C(c1ccccc1)c1ccc(CO)cc1 |
| 44 to 47 | CCCCCCCCCCCCCCCCCC(=O)OC1CC(C)(C)N(OC2CCCCC2)C(C)(C)C1 |
| 180 to 182 | O=C(c1ccc(OC(F)(F)F)cc1)N1CCc2cc(S(=O)(=O)N3CC(c4ccccc4)NC3=O)ccc21 (stereo unspecified) |
| 181 to 185 | O=C1OCc2ccccc2C1=NO |
| 121 to 122 | O=C1CCS(=O)(=O)c2sccc21 |
| 135 to 138 | O=[N+]([O-])c1c(NC2CC2)ncnc1N1CCc2ccccc2CC1 |

Source: a melting point compilation (Tetko et al.; mined from patent text by program, amines drawn as free bases though some values may be those of a salt)
